The values below come from patent US20250034200A1, “Prodrugs of Neurosteroid Analogs and Uses Thereof” (priority 2021, published 2025).

Structures can show the parent of a compound that is named as a salt. Where two headings read alike, the source gives them in different places.

Data set [1] is described as follows: Aqueous stability assay (HPLC, pseudo first-order half-life). Format: physicochemical. The settings on record: for stability in the acidic aqueous mediums: pH 4.0 and 5.5.
Data set [2] can be described thus: Plasma stability assay (LC-MS/MS). It counts as in vitro ADME. Conditions: for half-life: read-out: Plasma t1/2 (converted). The method in brief: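 Compound (3 μM final; 0.03% DMSO, up to 0.6% methanol) was incubated in human plasma at 37° C for up to 240 min, sampled at 0, 15, 30, 60, 120, 180 and 240 min in duplicate. Samples were quenched in cold acetonitrile or methanol with internal standard and quantified by LC-MS/MS (ESI+, MRM). Stability was derived from the slope of ln(% parent remaining) versus time.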

Data set [3] can be described thus: Nephelometry (aqueous solubility). Format: physicochemical. Conditions: DPBS with 1% DMSO, aqueous buffer, kinetic from dmso stock, DPBS pH 7.0-7.3, 1% DMSO, 25° C. The text has this: Well A1 of the plate contained 100% DMSO.
In data set [4] the test system is rat disease model of acute TBI. The experiment in a line: Edema assay in rat model of acute TBI (controlled cortical impact). Format: in vivo. The settings on record: for reduced brain edema: 10 mg/kg IM at 1 and 6 h post-TBI, edema at 24 h. The protocol:
A prodrug dose of 10 mg/kg was chosen and administered IM at 1 and 6 hours post-injury. Prodrug dosage is equimolar±5% with respective to the parent compound.
Subjects—Male SD rats weighing 250-350 g at the time of injury were used for the efficacy study, which was conducted in our facility at Emory University. The rats were maintained on a reverse 12:12 light-dark cycle at 22±1° C. with appropriate humidity levels. After one week of quarantine the rats were handled at least 3 times prior to surgery. This study was conducted in a facility approved by the American Association for the Accreditation of Laboratory Animal Care (AAALAC) in accordance with all National Institutes of Health guidelines. All experimental animal procedures were approved by the Emory University Institutional Animal Care and Use Committee.
Contusion Injury—Rats were anesthetized using isoflurane gas (5% induction, 1.5% maintenance, 700 mmHg N2O, 500 mmHg O2) and then mounted in a Kopf stereotaxic device (David Kopf Instruments, Tujunga, CA, USA). The scalp incision area was shaved and sterilized with Betadine® antiseptic and 70% isopropanol. Physiological parameters were monitored with pulse oximetry (SurgiVet model V3304): heart rate was maintained above ˜300 beats per minute and SpO2 kept above 90%. Core body temperature (˜37° C.) was maintained with a homeothermic heating blanket system (Harvard Apparatus, Holliston, MA, USA). Under aseptic conditions, a midline incision was made into the skin and fascia covering the skull. Cotton swabs were used to staunch and clean any fascial bleeding. […]
Treatment—Animals were randomly assigned to one of four treatment groups. […] Percent change in brain tissue water content was measured.
Edema Assay—Edema was measured at 24 h after surgery. […] The percent water content was calculated by [(wet wt-dry wt)/wet wt]×100. The percent difference in water content between the anterior peri-contusional and the posterior distal section was calculated for each sample by: [(anterior H2O %-posterior H2O %)/(posterior H2O %)]×100.

Data set [5] in a line: Rat plasma pharmacokinetic study. The settings on record: IV and IM routes.
Protocol: (§1) Test System—Healthy male Sprague Dawley rats (8-12 weeks old) weighing between 200 to 250 g were procured from Global, India. […] Temperature and humidity were maintained at 22±3° C. and 30-70%, respectively and illumination was controlled to give a sequence of 12 h light and 12 h dark cycle. Temperature and humidity were recorded by auto-controlled data logger system. All the animals were provided with laboratory rodent diet (Envigo Research private Ltd, Hyderabad). Reverse osmosis water treated with ultraviolet light was provided ad libitum.
(§2) Design—Rats (n=3 per treatment group, serial sampling) were administered a solution of either normal saline vehicle or test compound in normal saline at 2 mg/kg (IV) or 10 mg/kg (IM) with a dosing volume of 5 mL/kg (IV) or 1 mL/kg (IM).
(§3) Sample Collection—Blood samples (approximately 60 μL) were collected under light isoflurane anesthesia (Surgivet®) from retro orbital plexus from a set of three rats at 0.08, 0.25, 0.5, 1, 2, 4, 6, 8 and 10 h (IV) or 0.25, 0.5, 1, 2, 4, 6, 8 and 10 h (IM). Immediately after blood collection, plasma was harvested by centrifugation 4000 rpm, 10 min at 40° C. and samples were stored at −70±10° C. until bioanalysis.
(§4) Data Analysis—Concentrations of the test compound and its parent compound, progesterone C20-oxime, in rat plasma were determined by fit-for-purpose LC-MS/MS method by Sai Life Sciences. […] Cmax represents the mean observed maximum concentration of analyte. Tmax represents the average time at observed Cmax. Areas under the curve (AUC0-last) were calculated via the linear trapezoidal rule using GraphPad Prism v9.
For data set [6] the following is noted: male, Sprague Dawley, rat, in vivo.
Protocol: as §1, §2, §3, §4
Where [7] appears, read: acetate buffer pH 4.0, read-out: Acetate buffer (pH 4.0) t1/2 (converted).
Setting [8] is: acetate buffer pH 5.5, read-out: Acetate buffer (pH 5.5) t1/2 (converted).

Regarding `CNCCN(C)C(=O)O/N=C(\C)[C@H]1CC[C@H]2[C@@H]3CCC4=CC(=O)CC[C@]4(C)[C@H]3CC[C@]12C` [32b, (E)-9-((8S,9S,10R,13S,14S,17S)-10,13-dimethyl-3-oxo-2,3,6,7,8,9,10,11,12,13,14,15,16,17-tetradecahydro-1H-cyclopenta[a]phenanthren-17-yl)-5-methyl-7-oxa-2,5,8-triazadec-8-en-6-one hydrochloride], the “PBS t1/2” value in data set [1] (DPBS pH 7.0-7.3, 1 mg/mL, room temperature) came to 46.9 ± 0.8 h. In addition, the half-life in data set [1] (setting [7]) is 96 days; in data set [1] (setting [8]), 80 days; in data set [2] (human plasma, 37° C., 3 μM), 1.5 h. The “stability in the acidic aqueous mediums” value in data set [1] was “stable”. Besides, in data set [2], the “stability in human plasma” value was “unstable”. For the same compound, in data set [2] (human plasma), the “formation of the corresponding oxime (progesterone C20-oxime)” value is “observed”. The compound further displayed a solubility at 90 min in data set [3] greater than 750 µM. The same compound gave a reduced brain edema in data set [4] of 31%.

Regarding `C/C(=N\OC(=O)N(C)C[C@@H]1CCCN1)[C@H]1CCC2[C@@H]3CCC4=CC(=O)CC[C@]4(C)[C@H]3CC[C@@]21C.Cl` (stereo partly drawn) [32j, (8S,9S,10R,13S,17S)-10,13-dimethyl-17-((E)-1-(((methyl(((S)-pyrrolidin-2-yl)methyl)carbamoyl)oxy)imino)ethyl)-1,2,6,7,8,9,10,11,12,13,14,15,16,17-tetradecahydro-3H-cyclopenta[a]phenanthren-3-one hydrochloride], the half-life in data set [1] (setting [7]) was 48 days; in data set [1] (setting [8]) it was 2.4 days; in data set [1] (buffer, DPBS pH 7.0-7.3, 1 mg/mL, room temperature, read-out: PBS t1/2 (converted)), 0.0792 ± 0.00417 days; in data set [2] (human plasma, 37° C., 3 μM), less than 0.1 h. Moreover, in data set [1], the “stability in the acidic aqueous mediums” value was “stable”. Also, the “stability in human plasma” value in data set [2] is recorded as “unstable”. In data set [2] (human plasma), the “formation of the corresponding oxime (progesterone C20-oxime)” value was “observed”. Moreover, in data set [4], the reduced brain edema is 40%. Moreover, the “reducing brain edema, comparison with EIDD-1723” value in data set [4] (10 mg/kg dose IM) is listed as “equally efficacious”. For the same compound, the “formation of parent progesterone C20-oxime” value in data set [5] was “rapid and extensive”.

With `C/C(=N/OCOP(=O)([O-])[O-])[C@H]1CC[C@H]2[C@@H]3CCC4=CC(=O)CC[C@]4(C)[C@H]3CC[C@]12C.[Na+].[Na+]` [EIDD-1723], in data set [6], the “increase in the dose-corrected exposure to parent progesterone C20-oxime, IM compared to the IV route” value is listed as 3 fold. In addition, in data set [6] (im, 10 mg/kg), the “Parent AUClast” value turned out to be 753 ± 29 ng·h/mL. In addition, in data set [6] (iv, 2 mg/kg), the “Parent AUClast” value came out at 48 ± 6 ng·h/mL and the “Parent Cmax” value is on record as 219 ng/mL.

On to `C/C(=N\OC(=O)NCCN(C)C)[C@H]1CC[C@H]2[C@@H]3CCC4=CC(=O)CC[C@]4(C)[C@H]3CC[C@]12C.Cl` [compound 34, (E)-9-((8S,9S,10R,13S,14S,17S)-10,13-dimethyl-3-oxo-2,3,6,7,8,9,10,11,12,13,14,15,16,17-tetradecahydro-1H-cyclopenta[a]phenanthren-17-yl)-2-methyl-7-oxa-2,5,8-triazadec-8-en-6-one hydrochloride], for which the half-life in data set [1] (buffer, DPBS pH 7.0-7.3, 1 mg/mL, room temperature, d (days), read-out: PBS t1/2 (converted)) was 32.8 days. In addition, the “Plasma t1/2” value in data set [2] (human plasma, 37° C., 3 μM) was greater than 3.5 h. The compound further registered a solubility at 90 min in data set [3] greater than 750 µM.
